pIC50: −log10 of the molar value.

This test concerns the target Procathepsin L (Homo sapiens, UniProt P07711). Briefly: Assay buffer: 100 mM potassium phosphate pH 6.5, EDTA-Na 5 mM, Triton X-100 0.001%, DDT 5 mM. […] AMC=7-Amino-4-Methyl-Coumarin. […] Excitation 360 nm, Emission 465 nm. Enzyme is added to the substance dilutions in 96-well microtitre plates and the reaction is started with substrate.

Sequence of Procathepsin L (P07711 whole entry): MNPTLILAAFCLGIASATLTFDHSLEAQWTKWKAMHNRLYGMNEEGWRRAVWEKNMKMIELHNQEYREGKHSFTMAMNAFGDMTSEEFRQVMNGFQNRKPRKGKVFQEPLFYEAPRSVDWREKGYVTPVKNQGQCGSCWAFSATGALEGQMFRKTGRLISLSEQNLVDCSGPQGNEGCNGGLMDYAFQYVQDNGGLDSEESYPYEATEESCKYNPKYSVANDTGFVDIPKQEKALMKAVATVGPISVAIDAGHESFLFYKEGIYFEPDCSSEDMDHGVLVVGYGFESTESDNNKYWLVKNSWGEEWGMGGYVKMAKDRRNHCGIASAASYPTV

In turn, `N#Cc1ccc2c(c1)C(=O)N[C@H](C(=O)NC1(C#N)CC1)Cc1ccc(c(Cl)c1)OC/C=C/CO2` had a negative-log IC50 (pIC50) of 8.16.

Broadly, the pIC50 is the negative decadic logarithm of the IC50, by convention in mol/L.

Values taken from ChEMBL document CHEMBL3886572, “Cyclic amides” (2016).
